According to the NIST ThermoML archive (doi:10.1016/j.fluid.2010.01.002):
± gives the expanded uncertainty stated by the source.

Assay: mn = molality of the nth substance listed, in mol/kg
Conditions: 101 kPa, Liquid, Vibrating tube method

COS(=O)(=O)[O-].Cn1cc[n+](C)c1 [1,3-dimethylimidazolium methylsulfate] + O
mass density [kg/m3]
Conditions	298.15 K	308.15 K	318.15 K	328.15 K
m1 = 0.0095	997.56 ± 0.04	994.57 ± 0.05	990.75 ± 0.05	986.12 ± 0.05
m1 = 0.018	998.03 ± 0.04	995.02 ± 0.05	991.2 ± 0.05	986.56 ± 0.05
m1 = 0.0236	998.32 ± 0.04	995.31 ± 0.05	991.48 ± 0.05	986.84 ± 0.05
m1 = 0.0316	998.76 ± 0.04	995.73 ± 0.05	991.89 ± 0.05	987.25 ± 0.05
m1 = 0.0414	999.29 ± 0.04	996.24 ± 0.05	992.39 ± 0.05	987.74 ± 0.05
m1 = 0.0611	1000.34 ± 0.04	997.25 ± 0.05	993.38 ± 0.05	988.72 ± 0.05
m1 = 0.0788	1001.28 ± 0.05	998.16 ± 0.05	994.27 ± 0.05	989.59 ± 0.05
m1 = 0.0914	1001.94 ± 0.05	998.8 ± 0.05	994.9 ± 0.05	990.2 ± 0.05
m1 = 0.1165	1003.24 ± 0.05	1000.06 ± 0.05	996.14 ± 0.05	991.43 ± 0.05
m1 = 0.1441	1004.65 ± 0.05	1001.43 ± 0.05	997.49 ± 0.05	992.77 ± 0.05
m1 = 0.1816	1006.53 ± 0.05	1003.27 ± 0.05	999.3 ± 0.05	994.58 ± 0.05
m1 = 0.2172	1008.25 ± 0.05	1004.99 ± 0.05	1001 ± 0.05	996.25 ± 0.05
m1 = 0.2724	1010.92 ± 0.05	1007.59 ± 0.05	1003.6 ± 0.05	998.8 ± 0.05
m1 = 0.3964	1016.79 ± 0.05	1013.25 ± 0.05	1009.26 ± 0.05	1004.4 ± 0.05
m1 = 0.4557	1019.55 ± 0.06	1015.89 ± 0.05	1011.88 ± 0.05	1006.99 ± 0.05
m1 = 0.5756	1024.98 ± 0.06	1021.08 ± 0.06	1017.04 ± 0.06	1012.19 ± 0.06
m1 = 0.7108	1030.77 ± 0.06	1026.7 ± 0.06	1022.63 ± 0.06	1017.83 ± 0.06
m1 = 1.826	1071.65 ± 0.1	1065.12 ± 0.1	1061.7 ± 0.1	1057 ± 0.09
